{"source": "paper PMC3170264", "about": "(Retrovirology, 2011)", "type_in_all_cases": "biochemical", "key": {"[1]": {"target": "T1, HIV-2 IN G140S (Human immunodeficiency virus type 2 subtype B, UniProt Q89928, G1308S/I1218V/I1301V/I1372V/M1455R/N1185G/N1438H/R1202K/R1392Q/T1348V/T1383A/V1460M)", "T1 construct": "His-tag (pET-15b) (N); made in house; host or cells: Escherichia coli BL21-CodonPlus (DE3)-RIPL", "T1 sequence (Q89928 with tags, fused parts or gaps N1185G/R1202K/I1218V/I1301V/G1308S/T1348V/I1372V/T1383A/R1392Q/N1438H/M1455R/V1460M)": "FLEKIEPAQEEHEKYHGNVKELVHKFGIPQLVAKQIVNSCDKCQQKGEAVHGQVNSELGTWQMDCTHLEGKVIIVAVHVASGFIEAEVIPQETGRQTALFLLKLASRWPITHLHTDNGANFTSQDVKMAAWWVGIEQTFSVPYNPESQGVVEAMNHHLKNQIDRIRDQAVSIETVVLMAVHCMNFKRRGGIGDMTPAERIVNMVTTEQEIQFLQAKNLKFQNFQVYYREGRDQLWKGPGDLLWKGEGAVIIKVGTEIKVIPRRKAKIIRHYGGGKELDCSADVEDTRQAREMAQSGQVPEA", "experiment": "strand transfer inhibition, site-directed mutant in N1 background", "conditions": "200 nM IN", "protocol": "(§1) Activity is expressed as a % of control without drug. Experiments were performed two times.\n(§2) Primer 1: N1, N2, T1, T2, 5'-[…]-3'; N3, 5'-[…] […]-3'; T3-T7, 5'-[…]-3'. Primers 2: N1, 5'-[…]-3'; N2, 5'-[…] […]-3'; N3, 5'-[…] C-3'; T1, T2, 5'-[…]-3'; T3-T7, 5'-GGATC […] -3'.\n(§3) The HIV-2 ODN substrate sequences were: UA: 5'-[…]-3'; U5B: 5'-[…]-3'; U5B-2: 5'-[…] […]-3'."}, "[2]": {"target": "T2, HIV-2 IN Y143C/N155H (Human immunodeficiency virus type 2 subtype B, UniProt Q89928, I1218V/I1301V/I1372V/M1455R/N1185G/N1323H/N1438H/R1202K/R1392Q/T1348V/T1383A/V1460M/Y1311C)", "T2 construct": "His-tag (pET-15b) (N); made in house; host or cells: Escherichia coli BL21-CodonPlus (DE3)-RIPL", "T2 sequence (Q89928 with tags, fused parts or gaps N1185G/R1202K/I1218V/I1301V/Y1311C/N1323H/T1348V/I1372V/T1383A/R1392Q/N1438H/M1455R/V1460M)": "T1 sequence (Q89928 with tags, fused parts or gaps N1185G/R1202K/I1218V/I1301V/G1308S/T1348V/I1372V/T1383A/R1392Q/N1438H/M1455R/V1460M) with S140G, Y143C, N155H", "experiment": "strand transfer inhibition, site-directed mutant in N1 background", "conditions": "Y143C/N155H double mutant in N1 background; 200 nM IN", "protocol": "as §1, §2, §3"}, "[3]": {"target": "T3, HIV-2 IN Q148R (Human immunodeficiency virus type 2 subtype B, UniProt Q89928, I1218V/I1301V/I1372V/M1455R/N1185G/N1438H/Q1316R/R1202K/R1392Q/T1348V/T1383A/V1460M)", "T3 construct": "His-tag (pET-15b) (N); made in house; host or cells: Escherichia coli BL21-CodonPlus (DE3)-RIPL", "T3 sequence (Q89928 with tags, fused parts or gaps N1185G/R1202K/I1218V/I1301V/Q1316R/T1348V/I1372V/T1383A/R1392Q/N1438H/M1455R/V1460M)": "T1 sequence (Q89928 with tags, fused parts or gaps N1185G/R1202K/I1218V/I1301V/G1308S/T1348V/I1372V/T1383A/R1392Q/N1438H/M1455R/V1460M) with S140G, Q148R", "experiment": "susceptibility to RAL, site-directed mutant in N1 background", "conditions": "preliminary studies with high protein concentrations", "source_text": "as §2, §3"}, "[4]": {"target": "T4, HIV-2 N2 IN (Human immunodeficiency virus type 2 subtype B, UniProt Q89928, I1301V/I1428V/M1455R/N1185G/N1438H/R1202K/R1392Q/T1348A/T1383N/V1343I/V1460M)", "T4 construct": "His-tag (pET-15b) (N); made in house; host or cells: Escherichia coli BL21-CodonPlus (DE3)-RIPL", "T4 sequence (Q89928 1169-1464 N1185G/R1202K/I1301V/V1343I/T1348A/T1383N/R1392Q/I1428V/N1438H/M1455R/V1460M limits assumed)": "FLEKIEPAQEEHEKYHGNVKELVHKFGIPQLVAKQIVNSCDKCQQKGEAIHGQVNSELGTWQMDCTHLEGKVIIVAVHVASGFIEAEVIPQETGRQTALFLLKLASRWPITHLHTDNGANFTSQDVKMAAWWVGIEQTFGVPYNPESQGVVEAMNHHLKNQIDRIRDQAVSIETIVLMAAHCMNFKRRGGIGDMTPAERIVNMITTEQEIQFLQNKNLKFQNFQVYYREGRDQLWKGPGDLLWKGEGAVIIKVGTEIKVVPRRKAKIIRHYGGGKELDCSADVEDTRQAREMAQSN", "experiment": "strand transfer inhibition, IN from clinical isolate N2", "conditions": "IN from RAL-naive patient N2; 200 nM IN; 37°C; Mg2+", "protocol": "The ST reaction was performed using a ^32P-labeled oligonucleotide mimicking the preprocessed substrate. Drug concentrations are indicated above each lane. […] Activity is expressed as a % of control without drug. Experiments were repeated two times.\nas §3"}, "[5]": {"target": "T5, HIV-2 IN G140S/Q148R (T3) (Human immunodeficiency virus type 2 subtype A, UniProt P04584, A1212T/E1378D/G1311S/I1304V/I1351V/I1372T/M1463V/Q1319R/R1205K/R1395Q/S1188G/S1210T/T1231V/V1190I)", "T5 construct": "His-tag (pET-15b) (N); made in house; host or cells: Escherichia coli BL21-CodonPlus (DE3)-RIPL", "T5 sequence (P04584 1172-1464 S1188G/V1190I/R1205K/S1210T/A1212T/T1231V/I1304V/G1311S/Q1319R/I1351V/I1372T/E1378D/R1395Q/M1463V)": "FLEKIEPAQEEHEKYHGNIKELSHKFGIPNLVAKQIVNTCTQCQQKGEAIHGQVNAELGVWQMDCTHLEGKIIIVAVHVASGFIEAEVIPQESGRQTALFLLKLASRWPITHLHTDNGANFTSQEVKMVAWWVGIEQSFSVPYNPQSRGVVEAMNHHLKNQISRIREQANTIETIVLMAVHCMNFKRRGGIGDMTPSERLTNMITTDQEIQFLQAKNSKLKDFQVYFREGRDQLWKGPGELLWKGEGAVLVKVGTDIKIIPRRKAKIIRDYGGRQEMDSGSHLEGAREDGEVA", "experiment": "strand transfer inhibition, IN from clinical isolate T3", "conditions": "clinical isolate T3, G140S/Q148R double mutant; IC50 not reached at concentrations up to 1 μM", "protocol": "as §1, §3"}, "[6]": {"system": "HIV-2 IN E92A/T97A/N155H (T1)", "experiment": "strand transfer inhibition, IN from clinical isolate T1", "conditions": "clinical isolate T1, N155H with substitutions at positions 92 and 97, 200 nM IN", "protocol": "as §1, §3"}}, "note": "Numbering of substitutions follows the chain as printed.", "data": [{"compound": "Cc1nnc(C(=O)NC(C)(C)c2nc(C(=O)NCc3ccc(F)cc3)c(O)c(=O)n2C)o1", "note": "[RAL, raltegravir]", "values": [{"measurement": "susceptibility to RAL, strand transfer", "setting": "[1]", "result": "as susceptible to RAL as the wild-type reference N1 enzyme"}, {"measurement": "IC50", "setting": "[2]", "result": 0.29, "unit": "µM"}, {"measurement": "susceptibility to RAL", "setting": "[3]", "result": "not susceptible"}, {"measurement": "IC50", "setting": "[4]", "result": 0.03, "unit": "µM"}, {"measurement": "IC50", "setting": "[5]", "result": "> 1", "unit": "µM"}, {"measurement": "factor of increase of IC50 versus wild-type N1 IN", "setting": "[6]", "result": "about 50"}]}]}
